Here are results for 22 molecules from patent US12357581B2, “Nanoparticles comprising copolymeric or homopolymeric compounds which comprise cyanoacrylate subunits” (SINTEF TTO AS, priority 2019, dated 2025).

Entries after “also recorded” stand apart in the source; their conditions may differ.

Series [1] deals with Hep G2. As to the kind of experiment: Alcohol toxicity, MTT cell viability assay, Hep G2. The series is classed as cell-based, human. The note with it: 24 h, vs untreated control. Here is the method:
(§1) MTT cell viability assay.
(§2) Alcohol toxicity is disclosed in Table 3: Alcohol toxicity was assessed by exposure of the cells to a given concentration of alcohol to a limit of 3 wt %. Cell activity was determined after 24 h and compared to an untreated control. Data is reported as percentage remaining cell activity (vs control) in 3% alcohol in three individual cell lines. The greater the percentage of remaining activity, the lower the toxicity of the alcohol to the cell line. Thus, Hep G2 cells exposed to 3 wt % 2-ethylhexanol retained 91.2% activity, whereas Hep G2 cells exposed to 3 wt % 2-ethylbutanol retained only 74.6% activity. Thus 2-ethylhexanol is less toxic to Hep G2 cells than 2-ethylbutanol.
In general terms: Tetrazolium assays rely on reduction of a dye to a coloured formazan, in cell work by metabolically active cells.

Series [2] relates to LLC-PK1. Description: Alcohol toxicity, MTT cell viability assay, LLC-PK1. The series is classed as cell-based, porcine. The note with it: 24 h, vs untreated control. Here is the method: as §1, §2
Series [3] concerns IMR-90. Description: Alcohol toxicity, MTT cell viability assay, IMR-90. The note with it: 24 h, vs untreated control. The series is classed as cell-based, human. The protocol: as §1, §2
Series [4] in a line: Solubility of API/dyes with ACA monomers (visual). The series is classed as physicochemical. The note with it: typically 5.0 mg in 100 ul monomer, 24 h; for Solubility of CBZ in the monomer (blend): cabazitaxel. The source says: Solubility and degree of polymerization were monitored visually.
Where the result is given as ‘soluble’, the API was soluble in the choose monomer with no visual residue, and there can be used as a combination to prepare API loaded nanoparticles. If the results are given as insoluble or partially, it is an indication that this combination cannot be used to prepared API loaded nanoparticles.

The subject of series [5] is Hep G2 cell line and LLC-PK1.
Procedure: Cell lines: The cell lines were used for determining alcohol cytotoxicity Hep G2 (Human liver cancer cell line), LLC-PK1 (Porcine kidney cell line) and IMR-90 (Human lung fibroblast cell line). All medium was fortified with 10% (w/v) fetal calf serum albumin (Sigma) and 100 units/ml penicillin/streptomycin (PenStrep®, Sigma). All cell lines were obtained from ATCC and were routinely tested for mycoplasma. Cells growing in 24- or 96-well plates were incubated with serial dilutions of the alcohol for 24 h, at 37° C. in an atmosphere of 5% CO2. The toxicity was assessed the commonly used MTT (3-(4,5-dimethylthiazol-2-yl)-2,5-diphenyltetrazolium bromide) cell viability assay.
MTT cell viability assay. The cells were incubated for 24 with the different nanoparticles/substances. The cell medium was then aspirated and exchanged with 100 μl of medium containing a final concentration of 250 μg MTT/ml. The incubation was continued for 3 h at 37° C. for formation of the formazan-particles, which were dissolved in DMSO with 1% (v/v) NH4Cl. The absorbance was read in a plate reader (Biosys Ltd, Essex, UK) at 570 nm, and background from absorbance at 650 nm was subtracted.

Take `CCCCCC(C)O` (stereo not drawn) [2-heptanol]: the “Cell activity remaining at 3.00 wt % alcohol (%), Hep G2” value (“Cell activity remaining … (%), Hep G2” for short) in series [1] worked out at 73.9%. Also, in series [2], the “Cell activity remaining at 3.00 wt % alcohol (%), LLC-PK1” value (“Cell activity remaining … (%), LLC-PK1” below) amounted to 81.1%. Further, in series [3], the “Cell activity remaining at 3.00 wt % alcohol (%), IMR-90” value (“Cell activity remaining … (%), IMR-90” below) is on record as 50.7%.

Turning to “1-butanol [1-butanol (control), reference compound]”, in series [1], the “Cell activity remaining … (%), Hep G2” value was 61.8%. The “Cell activity remaining … (%), LLC-PK1” value in series [2] is on record as 81.8%. Also, in series [3], the “Cell activity remaining … (%), IMR-90” value was 59.7%.

With `C=C(C#N)C(=O)OCCCCCCC` [1-HPCA, 1-heptyl cyanoacrylate], in series [4], the “Solubility of CBZ in the monomer (blend)” value was “Soluble”, the “Solubility of Alpelisib in the monomer (blend)” value (shortened to “Solubility of Alpelisib”) is reported as “Soluble”, the “Solubility of Belinostat in the monomer (blend)” value was “Soluble” and the “Solubility of Docetaxil in the monomer (blend)” value is on record as “Soluble”. In series [4], the “Solubility of Mupirocin in the monomer (blend)” value (shortened to “Solubility of Mupirocin”) is recorded as “Insoluble” and the “Solubility of Oxaliplatin in the monomer (blend)” value (shortened to “Solubility of Oxaliplatin”) is given as “Insoluble”.

For `CCCCCCCCO` [1-octanol (control), 1-octanol, reference compound], in series [1], the “Cell activity remaining … (%), Hep G2” value is 69.8%. In addition, the “Cell activity remaining … (%), LLC-PK1” value in series [2] was found to be 1.8%. In addition, the “Cell activity remaining … (%), IMR-90” value in series [3] stood at 0.9%.

Regarding `C=C(C#N)C(=O)OC(CC)CC` [3-PCA, 3-pentyl cyanoacrylate], in series [4], the “Solubility of CBZ in the monomer (blend)” value is “Soluble”, the “Solubility of Alpelisib” value is given as “Soluble”, the “Solubility of Mupirocin” value is on record as “Soluble; also recorded: able to dissolve” and the “Solubility of Oxaliplatin” value was “Insoluble”.

For the molecule `CC(C)(C)CCO` [3,3-dimethylbutanol], the “Cell activity remaining … (%), Hep G2” value in series [1] was found to be 84.8%. For the same molecule, the “Cell activity remaining … (%), LLC-PK1” value in series [2] was 98.2%. Besides, the “Cell activity remaining … (%), IMR-90” value in series [3] is given as 81.7%.

Turning to `C=C(C#N)C(=O)OCCc1ccccc1` [2-PECA, 2-phenylethyl cyanoacrylate], in series [4], the “Solubility of CBZ in the monomer (blend)” value was “dissolves”, the “Solubility of Alpelisib” value is reported as “dissolves” and the “Solubility of Oxaliplatin” value is on record as “dissolves”.

Consider `CCC(O)CC` [3-pentanol], for which, in series [1], the “Cell activity remaining … (%), Hep G2” value amounted to 89.7%. In addition, in series [2], the “Cell activity remaining … (%), LLC-PK1” value was found to be 78.6%. The “Cell activity remaining … (%), IMR-90” value in series [3] is on record as 84.6%.

Turning to `C=C(C#N)C(=O)OCC(CC)CC` [EBCA (control), 2-ethylbutyl cyanoacrylate, reference compound], in series [4], the “Solubility of Belinostat in the monomer (blend)” value is given as “not”.

For `CCCCCO` [1-pentanol], the “Cell activity remaining … (%), Hep G2” value in series [1] is 63.3%. For the same molecule, the “Cell activity remaining … (%), LLC-PK1” value in series [2] turned out to be 83.4%. For the same molecule, in series [3], the “Cell activity remaining … (%), IMR-90” value was determined as 57.1%.

Consider `C=C(C#N)C(=O)OC(CC)CCCC` (stereo not drawn) [3-HPCA, 3-heptyl cyanoacrylate], for which, in series [4], the “Solubility of CBZ in the monomer (blend)” value is “Soluble”, the “Solubility of Alpelisib” value was “Soluble”, the “Solubility of Mupirocin” value is “Partially” and the “Solubility of Oxaliplatin” value is recorded as “Insoluble”.

As to `C=C(C#N)C(=O)OCCC(C)C` [3-MBCA, 3-methylbutyl cyanoacrylate], in series [4], the “Solubility of CBZ in the monomer (blend)” value is “Soluble”, the “Solubility of Alpelisib” value is listed as “Soluble”, the “Solubility of Mupirocin” value was “Insoluble” and the “Solubility of Oxaliplatin” value was “Insoluble”.

With `C=C(C#N)C(=O)OCCC(C)(C)C` [3,3-DMBCA, 3,3-dimethyl-1 butyl cyanoacrylate], in series [4], the “Solubility of CBZ in the monomer (blend)” value is “Soluble”, the “Solubility of Alpelisib” value was “Soluble”, the “Solubility of Mupirocin” value is “Insoluble” and the “Solubility of Oxaliplatin” value is recorded as “Insoluble”.

On to `CC(C)CCO` [3-methylbutanol], for which the “Cell activity remaining … (%), Hep G2” value in series [1] is recorded as 72.4%. For the same molecule, the “Cell activity remaining … (%), LLC-PK1” value in series [2] came out at 94.3%. For the same molecule, in series [3], the “Cell activity remaining … (%), IMR-90” value is on record as 67.6%.

Take `CCC(CC)CO` [2-ethylbutanol (control), 2-ethylbutanol, reference compound]: the “Cell activity remaining … (%), Hep G2” value in series [1] was found to be 74.6%. In addition, in series [2], the “Cell activity remaining … (%), LLC-PK1” value is reported as 86.2%. Besides, the “Cell activity remaining … (%), IMR-90” value in series [3] was 69.1%.

Regarding `CCCCC(O)CC` (stereo not drawn) [3-heptanol], in series [1], the “Cell activity remaining … (%), Hep G2” value amounted to 81.4%. For the same molecule, the “Cell activity remaining … (%), LLC-PK1” value in series [2] was found to be 96.4%. Further, the “Cell activity remaining … (%), IMR-90” value in series [3] is 81.7%.

For `C=C(C#N)C(=O)OC(C)CCCCC` (stereo not drawn) [2-HPCA, 2-heptyl cyanoacrylate], in series [4], the “Solubility of CBZ in the monomer (blend)” value was “Soluble”, the “Solubility of Alpelisib” value is listed as “Soluble”, the “Solubility of Mupirocin” value is “Soluble; also recorded: able to dissolve” and the “Solubility of Oxaliplatin” value was “Insoluble”.

Turning to `CCCCC(CC)CO` (stereo not drawn) [2-ethylhexanol], the “Cell activity remaining … (%), Hep G2” value in series [1] worked out at 91.2%. Moreover, the “Cell activity remaining … (%), LLC-PK1” value in series [2] came to 79.8%. Further, the “Cell activity remaining … (%), IMR-90” value in series [3] turned out to be 7.9%.

Regarding `C=C(C#N)C(=O)OCCCCC` [1-PCA, 1-pentyl cyanoacrylate], in series [4], the “Solubility of CBZ in the monomer (blend)” value was “Soluble”, the “Solubility of Alpelisib” value was “Soluble”, the “Solubility of Mupirocin” value is listed as “Insoluble” and the “Solubility of Oxaliplatin” value is reported as “Insoluble”.

In the case of `CCCCCCCO` [1-heptanol], the “Cell activity remaining … (%), Hep G2” value in series [1] was 72.3%. Moreover, the “Cell activity remaining … (%), LLC-PK1” value in series [2] was determined as 61.8%. In addition, the “Cell activity remaining … (%), IMR-90” value in series [3] came out at 58.3%.

With `OCCc1ccccc1` [2-phenylethanol], in series [5], the “Toxicity at 3% alcohol” value is “significant toxicity”. Also, in series [1], the “Cell activity remaining … (%), Hep G2” value was 0.9%. Also, the “Cell activity remaining … (%), LLC-PK1” value in series [2] was 1.1%. Besides, the “Cell activity remaining … (%), IMR-90” value in series [3] is 0.6%.

With `C=C(C#N)C(=O)OCCCCCCCC` [OCA (control), 1-octyl cyanoacrylate, reference compound], the “Solubility of Mupirocin” value in series [4] is reported as “insoluble”.
